According to ChEMBL document CHEMBL3507680, “University of Dundee, Gates Library screen for HepG2 cell viability”:

Test: Human HepG2 cell viability assay in 384 well format
Format: toxicity, cell-based
Design: dose 125 nL, time 70.5 hour; cytotoxicity at 70.5 h: concentration not given beside the values
Settings: HepG2 cells, read-out: Inhibition

CC(C)N1CCOC(CC(=O)N2CC(c3ccncc3)C2)C1 (stereo not drawn)
cytotoxicity at 70.5 h: -2.68%

COCCCNC(=O)c1cn(C(C)(C)C)c2ncccc12
cytotoxicity at 70.5 h: -5.22%

O=C(C1CC1)N1CCC(C(=O)N2CCC(c3ccc(F)cc3)C2)CC1 (stereo not drawn)
cytotoxicity at 70.5 h: 8.64%

CC(=O)N1CCc2c(nc(-c3ccccn3)nc2N(C)CC(O)CO)C1 (stereo not drawn)
cytotoxicity at 70.5 h: -9.73%

CN1CCN(C2CCN(C(=O)CCC3CCCC3)CC2)CC1
cytotoxicity at 70.5 h: -6.88%

CCc1nc(C)sc1CN1CC[C@@](O)(C2CCOCC2)[C@H](C)C1
cytotoxicity at 70.5 h: -12.2%

Cc1cc(CN[C@@H](Cc2ccccc2)C(N)=O)c(C)s1
cytotoxicity at 70.5 h: -14.1%

COc1ccc(C(C(=O)O)N2CCCN(C3CCCC3)CC2)cc1OC (stereo not drawn)
cytotoxicity at 70.5 h: 18.5%

Cc1ncsc1CCN(C)Cc1ccc(Br)o1
cytotoxicity at 70.5 h: 9.94%

COc1ccc(-c2cnc(CN(CC(N)=O)C3CCCC3)o2)cc1
cytotoxicity at 70.5 h: -11.2%

N[C@@H]1c2ccccc2C2(CCN(c3ccc(C(F)(F)F)cn3)CC2)[C@H]1O
cytotoxicity at 70.5 h: -15.9%

COc1ccccc1OCCNC(=O)NCC(C)C
cytotoxicity at 70.5 h: -12.4%

O=C(NCCNc1ncccn1)C1CC(=O)N(C2CCCC2)C1 (stereo not drawn)
cytotoxicity at 70.5 h: -6.36%

COc1cc(CNC(=O)c2csc(Br)c2)ccn1
cytotoxicity at 70.5 h: -12.9%

Cc1ccc(=O)n(Cc2csc(N(C)C3CC3)n2)n1
cytotoxicity at 70.5 h: -10.2%

Cc1nn(C)c(C)c1C(=O)NCc1cc(N(C)C)nc2ccccc12
cytotoxicity at 70.5 h: 27.3%

CCNC(=O)C1CN(Cc2c(-c3cc(C)on3)nn(C)c2Cl)CCO1 (stereo not drawn)
cytotoxicity at 70.5 h: 2.76%

COc1c(CNCc2ccc(CS(C)(=O)=O)cc2)c(C)nn1C
cytotoxicity at 70.5 h: 26.4%

COC(=O)CNC(=O)C12CCC(=O)N1c1cc(Cl)ccc1S2 (stereo not drawn)
cytotoxicity at 70.5 h: -1.84%

O=c1c(NCc2ccco2)c(NCC(O)CN2CCOCC2)c1=O (stereo not drawn)
cytotoxicity at 70.5 h: -6.2%

CC1CCCN1Cc1ccccc1-c1nc(C(C)(C)C)cc(=O)[nH]1 (stereo not drawn)
cytotoxicity at 70.5 h: 31.4%

Cc1cc(C(=O)N2CCn3nc(C(=O)NC4CC4)cc3C2)nc(C)n1
cytotoxicity at 70.5 h: -2.56%

O=C1CN(c2ccc(CNC(=O)Nc3nnc(C4CC4)s3)cc2)CCN1
cytotoxicity at 70.5 h: 21.5%

O=C(CNc1cc2c(cc1Cl)OCCCO2)NCc1ccc(F)cc1
cytotoxicity at 70.5 h: -4.01%

CCN(CC)CCNC(=O)CCc1c(C)nn(-c2ccccc2Br)c1C
cytotoxicity at 70.5 h: 8.21%

O=C1OCCCN1Cc1nc(-c2ccc(N3CCCCC3)cc2)no1
cytotoxicity at 70.5 h: -11.4%

Cc1occc1-c1nnc2n1NC(N)=C(C#N)S2
cytotoxicity at 70.5 h: -22.4%

C[C@@H](NC(=O)c1cccs1)c1onc(-c2cccnc2)c1C(=O)O
cytotoxicity at 70.5 h: 2.92%

CC(OCC1CC1)C(=O)Nc1cccc(C(=O)Nc2ccncc2)c1 (stereo not drawn)
cytotoxicity at 70.5 h: -10.9%

CC(C)=CCn1ncc(N2CCCCC2)cc1=O
cytotoxicity at 70.5 h: -3.13%

CC(OCC(F)(F)F)C(=O)N1CCCC1 (stereo not drawn)
cytotoxicity at 70.5 h: -61.3%

COc1ccc2nc(NC(=O)c3c(C(=O)O)cnn3C)sc2c1
cytotoxicity at 70.5 h: -8.88%

c1cc2occc2c(N2CCCC(c3nncn3C3CC3)C2)n1 (stereo not drawn)
cytotoxicity at 70.5 h: 17.6%

Cc1noc(C2CCN(C(=O)c3ccc(C(F)(F)F)nc3)CC2)n1
cytotoxicity at 70.5 h: -5.24%

Cc1csc(N2CCCN(C(=O)c3nccnc3N)CC2)n1
cytotoxicity at 70.5 h: -0.698%

CC(=O)NCC(=O)N1CC[C@H](OCC2CC2)[C@@H]1Cc1cccnc1
cytotoxicity at 70.5 h: -8.28%

O=C1CCC2(CCN(Cc3cscn3)CC2)CN1CC1CCCO1 (stereo not drawn)
cytotoxicity at 70.5 h: 10.4%

CC(=O)N1CC[C@H]2[C@H](C[C@@H](CN3CCCC3)N2c2nccs2)C1
cytotoxicity at 70.5 h: -7.72%

CNCC(=O)N1CCCC1c1cncc(Oc2ccc(F)cc2)n1 (stereo not drawn)
cytotoxicity at 70.5 h: -2.91%

O=C(CSc1nc2nncc-2c(O)n1-c1ccccc1)N1CCOCC1
cytotoxicity at 70.5 h: -10.6%

CCCN(CC(F)(F)F)C(=O)c1cc(F)cc2[nH]cnc12
cytotoxicity at 70.5 h: 0.747%

Cc1cc2n(n1)CCN(c1nc(N)nc3c1CCNCC3)C2
cytotoxicity at 70.5 h: -13.6%

CC(=O)N1CCCC2(CN(Cc3ccccc3C(F)(F)F)CCO2)C1 (stereo not drawn)
cytotoxicity at 70.5 h: -2.98%

CC1c2cccn2CCN1C(=O)CCc1nc(-c2ccccc2)no1 (stereo not drawn)
cytotoxicity at 70.5 h: -5.32%

CN(CC1CC1)S(=O)(=O)c1ccc(C(F)(F)F)cc1C#N
cytotoxicity at 70.5 h: -11.7%

O=C(O)C1c2nc[nH]c2CCN1Cc1ccc(-c2ccccc2)s1 (stereo not drawn)
cytotoxicity at 70.5 h: -4.04%

CC(C)c1nc2c(n1C)CCN(CC(=O)Nc1nccs1)C2
cytotoxicity at 70.5 h: -24.8%

COC(=O)c1cc(C(=O)N2CCC(C)CC2)n(-c2ccccc2)n1
cytotoxicity at 70.5 h: -6.41%

Cc1nc(N2CCOCC2)nc2c1CCN(Cc1nccn1C)CC2
cytotoxicity at 70.5 h: -11.2%

CC(c1nc(C2CC2)no1)N(C)Cc1ccc(Cl)cc1 (stereo not drawn)
cytotoxicity at 70.5 h: -3.08%

CC(C)N(C)Cc1cnc2n1CCN(C(=O)c1cccs1)C2
cytotoxicity at 70.5 h: -15.9%

O=C(c1cnccn1)N1CCCC(Cc2cncc3ccccc23)C1 (stereo not drawn)
cytotoxicity at 70.5 h: -6.77%

O=C(c1ccc(Cl)cc1)N1CC2(CCNC2)OCc2ccccc21 (stereo not drawn)
cytotoxicity at 70.5 h: -5.43%

COCCN1CCN(c2ccc(C)nn2)Cc2ccc(C)nc21
cytotoxicity at 70.5 h: -3.87%

OCC(CO)Nc1ccc2ccc(Cl)c(Cl)c2n1
cytotoxicity at 70.5 h: 19.4%

Cc1cc(C)cc(C(=O)N2CCCC3(CCCC(=O)N3C)C2)c1 (stereo not drawn)
cytotoxicity at 70.5 h: -14.4%

CN(Cc1cc2n(n1)CCN(C(=O)[C@H]1CCCO1)C2)Cc1nccs1
cytotoxicity at 70.5 h: 46.3%

Cc1noc(C)c1CC(=O)N1CC[C@@](C)(O)[C@H](Oc2ccccc2)C1
cytotoxicity at 70.5 h: -2.99%

Cc1csc(CNC(=O)N(C)Cc2cnn(C)c2)n1
cytotoxicity at 70.5 h: -15.5%

Cc1cccc(CCC(=O)N2CCOCC2c2c(C)n[nH]c2C)c1 (stereo not drawn)
cytotoxicity at 70.5 h: 17.3%

O=C(O)c1coc(COc2cccc3cnccc23)n1
cytotoxicity at 70.5 h: -7.63%

CS(=O)(=O)N1CCCC(Cc2cncc(-c3ccccc3C(=O)O)n2)C1 (stereo not drawn)
cytotoxicity at 70.5 h: -12.4%

CCn1cc(N2Cc3nc(N(C)C)ncc3C2=O)cn1
cytotoxicity at 70.5 h: -4.06%

CN(Cc1cccnc1)C[C@@H]1OC[C@H]2CN(C(=O)C3CC3)CC[C@H]21
cytotoxicity at 70.5 h: -5.43%

Cc1nccn1C1CCCN(C(=O)c2cccc(-n3cccc3)c2)C1 (stereo not drawn)
cytotoxicity at 70.5 h: 11.6%

COC(=O)c1cc2n(n1)CCN(C(=O)c1csc(CN(C)C)n1)C2
cytotoxicity at 70.5 h: -12.3%

Cc1cccc(CN2CCC(N(C)Cc3nnc(C4CC4)n3C)C2)c1 (stereo not drawn)
cytotoxicity at 70.5 h: -1.59%

Cc1nc(Nc2ncccn2)cc(C2CN(C(=O)c3cccnc3)C2)n1
cytotoxicity at 70.5 h: -8.6%

Cc1ccc(F)cc1NS(=O)(=O)c1cc2c(c(C(=O)O)c1)OCCO2
cytotoxicity at 70.5 h: -5.92%

CN(Cc1nccn1C)C1CCCN(Cc2noc(C3CC3)n2)C1 (stereo not drawn)
cytotoxicity at 70.5 h: 15.8%

CN1CCC(N(C)C[C@H]2CC[C@@H](Cc3cccc(O)c3)O2)CC1
cytotoxicity at 70.5 h: 43.7%

CNC(=O)C1Cn2ccnc2C2(CCN(C(=O)c3ccoc3C)CC2)O1 (stereo not drawn)
cytotoxicity at 70.5 h: -5.12%

CCOc1cccc(C(=O)N2CCC3(CC2)[C@H](O)C[C@@H]3OC)c1
cytotoxicity at 70.5 h: 0.338%

O=C1NCCN2CCN(Cc3ccc(Cl)c(Cl)c3)CC12 (stereo not drawn)
cytotoxicity at 70.5 h: -8.1%

CC(C)(CNC(=O)CCCOc1cccc(F)c1)C(N)=O
cytotoxicity at 70.5 h: -14.4%

COc1cccc(CCC2CCCN(Cc3ncc[nH]3)C2)c1 (stereo not drawn)
cytotoxicity at 70.5 h: 29.4%

Cc1cc(N(C)Cc2cc(C)on2)n2nc(C)c(C)c2n1
cytotoxicity at 70.5 h: -5.61%

Cc1ccc(NC2CCN(C(=O)c3ccc(Cl)o3)CC2)nn1
cytotoxicity at 70.5 h: 34.4%

Cc1nc2cc(O)nn2c(C)c1CCC(=O)NCCc1ccccc1
cytotoxicity at 70.5 h: 10.3%

Cc1ncc(CN(C)C(=O)Nc2cccc(CN3CCOC3=O)c2)s1
cytotoxicity at 70.5 h: -3.49%

Cc1nc(C)n(CC2CCCN2CC(=O)NCCC#N)n1 (stereo not drawn)
cytotoxicity at 70.5 h: -19.9%

Cc1cc(CN(C)C(=O)C2CCCN(C(N)=O)C2)no1 (stereo not drawn)
cytotoxicity at 70.5 h: -5.82%

COc1ccc2c(c1)CCCN2C(=O)NCCc1cnn(C)c1
cytotoxicity at 70.5 h: -11.2%

O=C(NCc1cccs1)[C@@H]1CC[C@@H]2[C@@H](CCN2c2ncccn2)O1
cytotoxicity at 70.5 h: -19.1%

COc1c(C)cnc(CSc2nnc(N)s2)c1C
cytotoxicity at 70.5 h: -3.12%

COCCN1CCCC12CCN(C(=O)CC1CCCC1)CC2
cytotoxicity at 70.5 h: 3.49%

Cc1ccc(-c2nc(CN3CCCC(C(=O)N(C)C)C3)cs2)o1 (stereo not drawn)
cytotoxicity at 70.5 h: 1.88%

Cc1noc(C(C)N2CCN(Cc3nc(C)c(C)o3)CC2)n1 (stereo not drawn)
cytotoxicity at 70.5 h: -3.69%

CN(C)c1nc(NCCCN2CCc3ccccc32)ncc1F
cytotoxicity at 70.5 h: 38.5%

COCCn1ccc(=O)c(OCC(=O)Nc2cccc(Cl)c2)c1C
cytotoxicity at 70.5 h: -8.65%

O=C1CC(N(C(=O)CCc2c[nH]c3ccccc23)C2CC2)C(=O)N1 (stereo not drawn)
cytotoxicity at 70.5 h: -14.1%

Cc1nc(C)n(Cc2cccc(NC3CCN(C)C3=O)c2)n1 (stereo not drawn)
cytotoxicity at 70.5 h: -10.6%

O=C(Nc1ccnn1Cc1ccc(Cl)cc1)C1CCS(=O)(=O)C1 (stereo not drawn)
cytotoxicity at 70.5 h: -8.12%

COc1ccc2c(c1)OCC(CNC1CCc3nc(C)nn3C1)=C2 (stereo not drawn)
cytotoxicity at 70.5 h: -8.64%

CN(C)c1nccc(NCc2cc(-c3ccco3)n[nH]2)n1
cytotoxicity at 70.5 h: -3.1%

Cc1oc(-c2nc(C#N)c(N(C)C)o2)cc1S(=O)(=O)N1CCCC1
cytotoxicity at 70.5 h: -21.5%

CC1(C)CN(CC(=O)NCc2ccccc2F)C[C@]1(C)O
cytotoxicity at 70.5 h: -9.16%

CCCc1n[nH]c(C2CN(C(=O)CCn3cc(C)cn3)CCO2)n1 (stereo not drawn)
cytotoxicity at 70.5 h: 4.48%

CC(C#N)CN(C)C(=O)CCNC(=O)OC(C)(C)C (stereo not drawn)
cytotoxicity at 70.5 h: -6.35%

Cc1nc(N2CCCC2)ccc1NCc1ccccn1
cytotoxicity at 70.5 h: -96.9%

O=c1ccc2c([nH]1)CCN(S(=O)(=O)c1ccc3c(c1)CCCC3)C2
cytotoxicity at 70.5 h: 3.55%

CCOc1cc(=O)n2c(c1C(=O)OCc1ccc(F)cc1)CCCC2
cytotoxicity at 70.5 h: -8.82%

Cn1cc(CN2CCc3ncnc(C4CCOC4)c3CC2)cn1 (stereo not drawn)
cytotoxicity at 70.5 h: 6%

Cc1cc(N2CCC(c3n[nH]c4nccnc34)C2)ncn1 (stereo not drawn)
cytotoxicity at 70.5 h: 19.2%

CCOC(=O)[C@]12CCCN(Cc3cccs3)C[C@H]1CN(CCOC)C2
cytotoxicity at 70.5 h: 1.08%

CN(C)C(=O)c1cnc2n1CCN(Cc1ccsc1)C2
cytotoxicity at 70.5 h: 2.92%

O=C(O)c1ccccc1-n1cnc(CN2CCc3ccccc32)c1
cytotoxicity at 70.5 h: -7.59%

CCNc1ncc(C(=O)N(C)Cc2nc3cc(Cl)ccc3[nH]2)cn1
cytotoxicity at 70.5 h: -13.7%

CC(CNC(=O)c1ccc(F)cc1Cl)N1CCCC1 (stereo not drawn)
cytotoxicity at 70.5 h: -7.32%

O=C(NCc1ccc(N2CC=CC2)cc1)Nc1nnc(C2CC2)s1
cytotoxicity at 70.5 h: 22.1%

COc1cccc(CC(=O)N2CCCC2c2nc(C)c(C)c(O)n2)c1 (stereo not drawn)
cytotoxicity at 70.5 h: -2.86%

COc1cccc(CNC(CN2CCN(C)CC2)c2ccccc2)c1 (stereo not drawn)
cytotoxicity at 70.5 h: 5.01%

Cc1cn2nc(N3CCN(Cc4c(C)noc4C)CC3)sc2n1
cytotoxicity at 70.5 h: 0.994%
